The record followed here is patent US8133991B2, “Allergen inactivating agent” (Kao Corporation, priority 2002, dated 2012).

SMILES strings stand for the structures.

The target in experiment [1] is T1, Dermatophagoides allergen Derf2 (Dermatophagoides farinae, UniProt Q00855).
T1 construct: purchased Torii Pharmaceutical Co., Ltd; host or cells: mite extract (natural allergen extract)
T1 sequence (Q00855 18-146): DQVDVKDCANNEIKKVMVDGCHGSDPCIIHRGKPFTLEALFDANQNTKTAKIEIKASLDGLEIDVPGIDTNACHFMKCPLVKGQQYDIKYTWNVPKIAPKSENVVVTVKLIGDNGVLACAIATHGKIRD
The experiment can be described thus: Derf2 sandwich ELISA of mite extract after treatment with sample. It counts as biochemical. The note with it: 1% sample solution mixed 1:1 with 0.5 mg/mL mite extract, room temperature 2 hours; distilled water control = 1; lower = more inactivation. On the procedure: (1) The polysaccharide derivative of the present invention was dissolved in distilled water to prepare 1% solution. Quantity of Dermatophagoides allergen was measured as a typical allergen in the indoor environment by sandwich ELISA using a mouse monoclonal antibody. More specifically, quantity of Dermatophagoides allergen Derf2 was measured by using Derf2 antibody and a labeled antibody manufactured by Asahi Brewery, Ltd.
The allergen inactivation effect is indicated in terms of the ratio in relation to the control wherein the sample was treated in the same way except for the use of distilled water, namely, by assuming the Derf2 quantity in the control as 1.
(2) Scratch extract “mite” (manufactured by Torii Pharmaceutical Co., Ltd.) was placed in a dialysis tube, and dialyzed overnight in 10% PBS (4° C.) to remove glycerol in the extract. […] Quantity of Derf2 in the reaction solution was determined by using anti-Derf2 monoclonal antibody (15E11) and HRP-labeled anti-Derf2 monoclonal antibody (13A4) manufactured by Asahi Brewery, Ltd. in accordance with the protocol attached with the product, and using Derf2 for the Derf2 antigen for depicting the calibration curve.
Quantity of the Derf2 treated with various samples was calculated in relation to the quantity of Derf2 treated with the distilled water, which was assumed to be 1.

Experiment [2] relates to Cat epithelium. Description: Quidel Allergen Screen: reactivity of immobilized allergen with allergy patient IgE. In kind it is biochemical. The following applies: 1% sample, 100 μL/stick, room temperature 2 hours; distilled water control = 0. The text has this: (§1) Quidel Allergen Screen (manufactured by Xenith Biomed) which is a reagent for detecting antigen-specific IgE antibody by using enzyme-labeled anti-IgE antibody was used to measure the reactivity between the allergen (house dust, Dermatophagoides farinae, Dermatophagoides pteronyssinus, cat epidermis, Cryptomeria japonica, ragweed, and the like) immobilized on a dip stick and the IgE antibody from the allergy patient by the procedure as described below.
(§2) The allergen stick was placed in a wetting box with the pad side facing upward, and the stick was impregnated with the product of the present invention adjusted to 1% at an amount of 100 μL/stick and left at room temperature for 2 hours. Each pad was washed evenly for 30 seconds with physiological saline in a washing bottle, and 50 μL/stick of the serum collected from an allergy patient was added dropwise to the pad and the serum was evenly spread. The wetting box was covered with lid and allowed to stand for 18 hours at room temperature. After the completion of the reaction, the pad was washed evenly for 20 seconds by the physiological saline in a washing bottle.
(§3) About 1 mL of enzyme-labeled anti-IgE antibody was placed in a test tube, and allergen stick is placed in the test tube with the pad facing downward after washing the allergen stick and shaking off the excess water, and the reaction was allowed to take place at room temperature for 30 minutes. After the termination of the reaction, each pad was evenly washed with tap water for 2 minutes. At this occasion, disappearance of the red color on the pad was confirmed. About 1 mL of the substrate solution was poured into test tube, and allergen stick was placed in the test tube with the pad facing downward after washing the allergen stick and shaking off the excess water, and the reaction was allowed to take place at room temperature for 30 minutes. After the completion of the reaction, reaction was terminated by absorbing the water impregnated in the pad with a paper towel by gently patting the pad with the paper towel from the rear side of the pad. Next, intensity of the blue color developed was measured with an image analyzer, and decrease in the reactivity by the product of the present invention was calculated by the following equation by using the color intensity attained when the IgE from allergy patient was used with distilled water treatment for the control.
(§4) Allergen inactivation effect (%)=100−{(IgE reaction intensity when treated by the product of the present invention)−(reaction intensity of the negative control)}/{(IgE reaction intensity of the control treated by distilled water)−(reaction intensity of the negative control)×100

The subject of experiment [3] is Dermatophagoides farinae. The experiment is described as above. It counts as biochemical. The following applies: 1% sample, 100 μL/stick, room temperature 2 hours; distilled water control = 0.
Excerpt: as §1, §2, §3, §4

In experiment [4] the test system is Dermatophagoides pteronyssinus. The description is as above. It counts as biochemical. The note with it: 1% sample, 100 μL/stick, room temperature 2 hours; distilled water control = 0.
Excerpt: as §1, §2, §3, §4

The subject of experiment [5] is House dust 1. Described as above. The note with it: 1% sample, 100 μL/stick, room temperature 2 hours; distilled water control = 0. It counts as biochemical.
Excerpt: as §1, §2, §3, §4

Experiment [6] has as its system Ceder. The description is as above. In kind it is biochemical, Cryptomeria japonica. The following applies: 1% sample, 100 μL/stick, room temperature 2 hours; distilled water control = 0.
Excerpt: as §1
The allergen stick was placed in a wetting box with the pad side facing upward, and the stick was impregnated with the product of the present invention adjusted to 1% at an amount of 100 μL/stick and left at room temperature for 2 hours. […]
About 1 mL of enzyme-labeled anti-IgE antibody was placed in a test tube, and allergen stick is placed in the test tube with the pad facing downward after washing the allergen stick and shaking off the excess water, and the reaction was allowed to take place at room temperature for 30 minutes. […] Next, intensity of the blue color developed was measured with an image analyzer, and decrease in the reactivity by the product of the present invention was calculated by the following equation by using the color intensity attained when the IgE from allergy patient was used with distilled water treatment for the control. […]

Turning to `O=C(OC[C@H]1O[C@@H](OC(=O)c2cc(O)c(O)c(OC(=O)c3cc(O)c(O)c(O)c3)c2)[C@H](OC(=O)c2cc(O)c(O)c(OC(=O)c3cc(O)c(O)c(O)c3)c2)[C@@H](OC(=O)c2cc(O)c(O)c(OC(=O)c3cc(O)c(O)c(O)c3)c2)[C@@H]1OC(=O)c1cc(O)c(O)c(OC(=O)c2cc(O)c(O)c(O)c2)c1)c1cc(O)c(O)c(OC(=O)c2cc(O)c(O)c(O)c2)c1` [Tannic acid], the “Quantity of Derf2 (Ratio to the control)” value in experiment [1] worked out at 0.2. Also, the “Allergen inactivating effect (%) <Animal allergen> Cat epithelium” value in experiment [2] is given as 92%. Further, the “Allergen inactivating effect (%) <Animal allergen> Dermatophagoides farinae” value in experiment [3] came to 62%. The “Allergen inactivating effect (%) <Animal allergen> Dermatophagoides pteronyssinus” value in experiment [4] was found to be 70%. For the same compound, the “Allergen inactivating effect (%) <Animal allergen> House dust 1” value in experiment [5] is recorded as 83%. The “Allergen inactivating effect (%) <Plant allergen> Ceder” value in experiment [6] was 78%.
